{
  "source": "paper PMC10787880",
  "about": "“Structural and functional characterization of a new thermophilic-like OYE from Aspergillus flavus” (Applied Microbiology and Biotechnology, 2024)",
  "molecular_target": "T1, AfOYE1 (Aspergillus flavus, UniProt B8N8Q9)",
  "T1 construct": "gene afvA; codon-optimised gene in pET28b, E. coli BL21(DE3); N-terminal His6-TEV tag, cut by TEV protease; about 43 kDa; dimer in the crystal; non-covalent FMN",
  "T1 sequence (B8N8Q9 whole entry)": "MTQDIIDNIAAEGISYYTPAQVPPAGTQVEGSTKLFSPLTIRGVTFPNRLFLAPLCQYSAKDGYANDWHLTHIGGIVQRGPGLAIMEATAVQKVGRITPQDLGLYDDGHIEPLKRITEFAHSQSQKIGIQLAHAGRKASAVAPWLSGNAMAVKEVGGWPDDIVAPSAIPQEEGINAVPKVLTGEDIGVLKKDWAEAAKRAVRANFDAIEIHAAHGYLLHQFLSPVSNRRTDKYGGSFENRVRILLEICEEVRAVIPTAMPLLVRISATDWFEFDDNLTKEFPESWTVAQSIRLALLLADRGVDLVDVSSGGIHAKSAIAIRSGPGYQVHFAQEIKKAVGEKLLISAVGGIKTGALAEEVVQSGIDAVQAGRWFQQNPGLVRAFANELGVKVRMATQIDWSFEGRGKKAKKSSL",
  "assay": "X-ray crystal structure […] Å; UV-visible spectrum of released flavin",
  "assay_type": "binding",
  "details": "non-covalent prosthetic group, active site; chloride and ethylene glycol also in site",
  "data": [
    {"compound": "Cc1cc2nc3c(=O)[nH]c(=O)nc-3n(C[C@H](O)[C@H](O)[C@H](O)COP(=O)(O)O)c2cc1C", "note": "[FMN]", "values": [
      {"measurement": "X-ray crystal structure 1.55 Å; UV-visible spectrum of released flavin", "value": "On the top of the β-barrel core of each monomer encircles one FMN cofactor"}
    ]}
  ]
}
